Each block holds one molecule with its values, some of them ahead of it.
Legend:
Type in all cases: physicochemical
[1] = Stability studies of the two crystal forms (crystal form by XRPD/TGA)
[2] = as above; conditions: for Long term stability of crystal form (XRPD and TGA): non-micronized, three months
Method: Samples of monohydrate were stored at room temperature, 56° C., and 70° C. for one week. At room temperature, humidity was maintained at 0% RH. Humidity was not controlled for the higher temperatures.
The samples were analyzed by XRPD and TGA.
(§1) Non-micronized samples of monohydrate and anhydrate were stored at 40° C./75% RH for three months. The monohydrate was also stored at 40° C. without humidity control. During the three months, the samples were checked after two weeks, one month, two months, and three months.

[3] = Chemical stability of the crystal forms on storage (HPLC); conditions: non-micronized, 40° C./75% RH (monohydrate also 40° C. without humidity control), three months
Method: as §1

[4] = Dynamic vapor sorption (hygroscopicity) of the two crystal forms; conditions: for DVS weight gain: 0–90% RH
Text: Dynamic Vapor Sorption (Allentown, Pa.) was used to measure the hygroscopicity of the anhydrate and monohydrate of the invention (see FIGS. 6 and 7). The step conditions were three hours each at 0%, 30%, 52.5%, 75% and 90% RH, two full cycles.

[5] = Water solubility of the two crystal forms; conditions: for solubility: water, thermodynamic from solid

- Long term stability of crystal form (XRPD) ([1]; micronized, 25° C./60% RH, three months): did not transform to the monohydrate
- Long term stability of crystal form (XRPD) ([1]; micronized, 40° C./75% RH, after one month): partially transform to the monohydrate
- Long term stability of crystal form (XRPD) ([1]; non-micronized, 40° C./75% RH, separate study): did not show any obvious transformation
- Long term stability of crystal form (XRPD and TGA) ([2]; 40° C./75% RH): did not transform
- Long term chemical stability (HPLC) [3]: chemically stable
- Hygroscopicity (from DVS data) [4]: largely non-hygroscopic
- DVS weight gain [4]: 0.2% gain (0–90%
- solubility ([5]; pH 7.29, water): 10 µg/mL
- solubility ([5]; pH 7.7, water, pH 7.70): 12.8 µg/mL
SMILES: C=Cc1cc(O)cc2nc(-c3ccc(O)c(F)c3)oc12 [Anhydrate, 2-(3-fluoro-4-hydroxyphenyl)-7-vinyl-1,3-benzoxazol-5-ol]

- Short term stability of crystal form (XRPD) ([1]; 70° C. for one hour): stable
- Short term stability of crystal form (XRPD) ([1]; 90° C. after one half hour): partially dehydrated
- Short term stability of crystal form (XRPD) ([1]; 90° C. after one hour): completely dehydrated
- Medium term stability of crystal form (XRPD and TGA) ([2]; 56° C., humidity not controlled, one week): no obvious dehydration
- Medium term stability of crystal form (XRPD and TGA) ([2]; 70° C., humidity not controlled, after 1 day): no obvious hydration
- Medium term stability of crystal form (XRPD and TGA) ([2]; 70° C., humidity not controlled, after 4 days): partially dehydrated
- Medium term stability of crystal form (XRPD and TGA) ([2]; 70° C., humidity not controlled, after 7 days): mostly dehydrated
- Long term stability of crystal form (XRPD and TGA) ([2]; 40° C. without humidity control): did not transform
- Long term stability of crystal form (XRPD and TGA) ([2]; 40° C./75% RH): did not transform
- Medium term stability of crystal form (XRPD and TGA) ([2]; room temperature, 0% RH, one week): no obvious dehydration
- Long term chemical stability (HPLC) [3]: chemically stable
- Hygroscopicity (from DVS data) [4]: largely non-hygroscopic
- DVS weight gain [4]: 0.1% gain (0–90% RH)
- solubility ([5]; pH 7.11, water): 2.34 µg/mL
- solubility ([5]; pH 7.51, water): 2.21 µg/mL
SMILES: C=Cc1cc(O)cc2nc(-c3ccc(O)c(F)c3)oc12 [Monohydrate, 2-(3-fluoro-4-hydroxyphenyl)-7-vinyl-1,3-benzoxazol-5-ol]
- Water solubility compared between the two forms [5]: significantly lower solubility than the anhydrate

— patent US20070207201A1, “Liquid and Semi-Solid Pharmaceutical Formulations and Processes” (Wyeth, priority 2006, published 2007)
